PMC5218480 (PLoS ONE, 2017)

Tested on: MV-4-11 cells
Assay: Gene expression microarray analysis (Affymetrix PrimeView) and GSEA
Assay type: cell-based, human
Parameters: RFU PODN (11730768_x_at) / Fold change /veh PODN (11730768_x_at) / RFU LINC00158 (11744669_a_at) / Fold change /veh LINC00158 (11744669_a_at) / RFU DUSP10 (11751237_a_at) / Fold change /veh DUSP10 (11751237_a_at) / RFU ID3 (11757404_x_at) / Fold change /veh ID3 (11757404_x_at) / RFU PLEKHG5 (11737974_s_at) / Fold change /veh PLEKHG5 (11737974_s_at) / RFU LRRC4B (11730491_at) / Fold change /veh LRRC4B (11730491_at) / RFU GIMAP4 (11747438_a_at) / Fold change /veh GIMAP4 (11747438_a_at) / RFU KRT8 (11758183_x_at) / Fold change /veh KRT8 (11758183_x_at) / RFU CNN1 (11734310_a_at) / Fold change /veh CNN1 (11734310_a_at) / RFU VPS37D (11726825_at) / Fold change /veh VPS37D (11726825_at) / RFU C10orf10 (11716522_x_at) / Fold change /veh C10orf10 (11716522_x_at) / RFU KIR2DL2 /// KIR2DL4 /// KIR2DL5A /// KIR2DL5B /// KIR2DS1 /// KIR2DS2 /// KIR2DS3 /// KIR2DS4 /// KIR3DL3 /// KIR3DL3 /// KIR3DS1 (11738374_at) / Fold change /veh KIR2DL2 /// KIR2DL4 /// KIR2DL5A /// KIR2DL5B /// KIR2DS1 /// KIR2DS2 /// KIR2DS3 /// KIR2DS4 /// KIR3DL3 /// KIR3DL3 /// KIR3DS1 (11738374_at) / RFU C1QL1 (11718748_at) / Fold change /veh C1QL1 (11718748_at) / RFU TMPRSS4 (11747572_a_at) / Fold change /veh TMPRSS4 (11747572_a_at) / RFU HAMP (11756126_x_at) / Fold change /veh HAMP (11756126_x_at) / RFU RNFT2 (11725882_a_at) / Fold change /veh RNFT2 (11725882_a_at) / RFU NR4A2 (11747474_a_at) / Fold change /veh NR4A2 (11747474_a_at) / RFU ABCC12 (11746883_a_at) / Fold change /veh ABCC12 (11746883_a_at) / RFU TMEM136 (11760407_x_at) / Fold change /veh TMEM136 (11760407_x_at) / RFU CLDN22 /// WWC2 (11732394_at) / Fold change /veh CLDN22 /// WWC2 (11732394_at) / RFU HLA-DPB1 (11760878_x_at) / Fold change /veh HLA-DPB1 (11760878_x_at) / RFU SPINT1 (11716480_a_at) / Fold change /veh SPINT1 (11716480_a_at) / RFU GAP43 (11754022_s_at) / Fold change /veh GAP43 (11754022_s_at) / RFU A4GNT (11735810_at) / Fold change /veh A4GNT (11735810_at) / RFU PRB3 (11715151_x_at) / Fold change /veh PRB3 (11715151_x_at) / RFU TUBB4B (11761932_at) / Fold change /veh TUBB4B (11761932_at) / RFU CAPN14 (11732068_a_at) / Fold change /veh CAPN14 (11732068_a_at) / RFU TMCC2 (11721928_a_at) / Fold change /veh TMCC2 (11721928_a_at) / RFU IRGQ (11745062_a_at) / Fold change /veh IRGQ (11745062_a_at) / RFU FAM174B (11720279_a_at) / Fold change /veh FAM174B (11720279_a_at) / RFU TMPRSS4 (11748680_a_at) / Fold change /veh TMPRSS4 (11748680_a_at) / RFU FAM212B (11763350_a_at) / Fold change /veh FAM212B (11763350_a_at) / RFU PLEKHG5 (11743358_a_at) / Fold change /veh PLEKHG5 (11743358_a_at) / RFU ZSCAN30 (11745921_a_at) / Fold change /veh ZSCAN30 (11745921_a_at) / RFU CMKLR1 (11741424_a_at) / Fold change /veh CMKLR1 (11741424_a_at) / RFU LOC101060620 /// MAPK8IP1 (11723275_at) / Fold change /veh LOC101060620 /// MAPK8IP1 (11723275_at) / RFU SPTSSB (11747773_x_at) / Fold change /veh SPTSSB (11747773_x_at) / RFU PRSS12 (11739890_at) / Fold change /veh PRSS12 (11739890_at) / RFU BIN1 (11741810_x_at) / Fold change /veh BIN1 (11741810_x_at) / RFU WNT11 (11732464_a_at) / Fold change /veh WNT11 (11732464_a_at) / RFU C10orf10 (11716521_a_at) / Fold change /veh C10orf10 (11716521_a_at) / RFU C5orf56 (11738089_at) / Fold change /veh C5orf56 (11738089_at) / RFU CYB561 (11721691_x_at) / Fold change /veh CYB561 (11721691_x_at) / RFU ANKRD19P (11752326_a_at) / Fold change /veh ANKRD19P (11752326_a_at) / RFU OR2T12 /// OR2T33 /// OR2T8 (11738714_s_at) / Fold change /veh OR2T12 /// OR2T33 /// OR2T8 (11738714_s_at) / RFU VCAN (11748164_a_at) / Fold change /veh VCAN (11748164_a_at) / RFU JSRP1 (11732532_at) / Fold change /veh JSRP1 (11732532_at) / RFU KRTAP10-11 (11738290_x_at) / Fold change /veh KRTAP10-11 (11738290_x_at) / RFU MYO3A (11730013_a_at) / Fold change /veh MYO3A (11730013_a_at) / RFU EBF3 (11725865_a_at) / Fold change /veh EBF3 (11725865_a_at) / RFU CAMK2N1 (11719241_x_at) / Fold change /veh CAMK2N1 (11719241_x_at) / RFU C5orf56 (11738088_a_at) / Fold change /veh C5orf56 (11738088_a_at) / RFU OLFML3 (11715873_a_at) / Fold change /veh OLFML3 (11715873_a_at) / RFU LOC100653217 /// NTM (11731650_a_at) / Fold change /veh LOC100653217 /// NTM (11731650_a_at) / RFU MAPK11 (11762145_a_at) / Fold change /veh MAPK11 (11762145_a_at) / RFU FIZ1 (11724087_x_at) / Fold change /veh FIZ1 (11724087_x_at) / RFU OASL (11726364_x_at) / Fold change /veh OASL (11726364_x_at) / RFU SOX15 (11748057_x_at) / Fold change /veh SOX15 (11748057_x_at) / RFU CD79A (11719716_a_at) / Fold change /veh CD79A (11719716_a_at) / RFU HIST1H1D (11736915_at) / Fold change /veh HIST1H1D (11736915_at) / RFU CASKIN2 (11723855_a_at) / Fold change /veh CASKIN2 (11723855_a_at) / RFU LOC730098 (11760151_x_at) / Fold change /veh LOC730098 (11760151_x_at) / RFU OR4N2 (11742367_at) / Fold change /veh OR4N2 (11742367_at) / RFU PRRT2 (11749266_a_at) / Fold change /veh PRRT2 (11749266_a_at) / RFU SNX32 (11753110_a_at) / Fold change /veh SNX32 (11753110_a_at) / RFU CDHR5 (11726645_a_at) / Fold change /veh CDHR5 (11726645_a_at) / RFU RCAN1 (11760418_a_at) / Fold change /veh RCAN1 (11760418_a_at) / RFU FAM167A (11723789_a_at) / Fold change /veh FAM167A (11723789_a_at) / RFU FAM26E (11764081_at) / Fold change /veh FAM26E (11764081_at) / RFU ISYNA1 (11749810_s_at) / Fold change /veh ISYNA1 (11749810_s_at) / RFU ACY1 (11761880_at) / Fold change /veh ACY1 (11761880_at) / RFU 11764098_at / Fold change /veh 11764098_at / RFU SAMD14 (11745864_x_at) / Fold change /veh SAMD14 (11745864_x_at) / RFU NPB (11741838_a_at) / Fold change /veh NPB (11741838_a_at) / RFU TMPRSS6 (11731388_a_at) / Fold change /veh TMPRSS6 (11731388_a_at) / RFU KRTAP10-2 (11738614_at) / Fold change /veh KRTAP10-2 (11738614_at) / RFU ARHGAP8 /// PRR5-ARHGAP8 (11727945_x_at) / Fold change /veh ARHGAP8 /// PRR5-ARHGAP8 (11727945_x_at) / RFU KRTAP5-7 /// NADSYN1 (11734609_at) / Fold change /veh KRTAP5-7 /// NADSYN1 (11734609_at) / RFU RASL12 (11751679_a_at) / Fold change /veh RASL12 (11751679_a_at) / RFU CDKN2B (11736163_a_at) / Fold change /veh CDKN2B (11736163_a_at) / RFU PRF1 (11729649_at) / Fold change /veh PRF1 (11729649_at) / RFU, ZNF638 /// ZNF638-IT1 / Fold change vs veh, ZNF638 /// ZNF638-IT1 / RFU, PANK3 / Fold change vs veh, PANK3 / RFU, SH3YL1 / Fold change vs veh, SH3YL1 / RFU, ZEB2 / Fold change vs veh, ZEB2 / RFU, NRIP1 / Fold change vs veh, NRIP1 / RFU, PTTG1IP / Fold change vs veh, PTTG1IP / RFU, CAPN2 / Fold change vs veh, CAPN2 / RFU, MED14 / Fold change vs veh, MED14 / RFU, SNORA58 / Fold change vs veh, SNORA58 / RFU, C1orf63 / Fold change vs veh, C1orf63 / RFU, LRRFIP1 / Fold change vs veh, LRRFIP1 / RFU, NDUFAF7 / Fold change vs veh, NDUFAF7 / RFU, SLC12A2 / Fold change vs veh, SLC12A2 / RFU, IBTK / Fold change vs veh, IBTK / RFU, ESF1 / Fold change vs veh, ESF1 / Fold change vs veh, TMEM50B / RFU, TAOK1 / Fold change vs veh, TAOK1 / RFU, ACBD3 / Fold change vs veh, ACBD3 / RFU, TMA16 / Fold change vs veh, TMA16 / RFU, RWDD3 / Fold change vs veh, RWDD3 / RFU, BCAT1 / Fold change vs veh, BCAT1 / RFU, EDEM3 / Fold change vs veh, EDEM3 / RFU, TMEM33 / Fold change vs veh, TMEM33 / RFU, WDR75 / Fold change vs veh, WDR75 / RFU, AHCTF1 / Fold change vs veh, AHCTF1 / RFU, TFRC / Fold change vs veh, TFRC / RFU, ZDHHC17 / Fold change vs veh, ZDHHC17 / RFU, NOM1 / Fold change vs veh, NOM1 / RFU, ARL8B / Fold change vs veh, ARL8B / RFU, ZBTB11 / Fold change vs veh, ZBTB11 / RFU, TAMM41 / Fold change vs veh, TAMM41 / RFU, KIAA1704 /// LOC100996395 / Fold change vs veh, KIAA1704 /// LOC100996395 / RFU, ING1 / Fold change vs veh, ING1 / RFU, TRMT61B / Fold change vs veh, TRMT61B / RFU, FUBP3 / Fold change vs veh, FUBP3 / RFU, TP53 / Fold change vs veh, TP53 / RFU, TNKS2 / Fold change vs veh, TNKS2 / RFU, ZFP14 / Fold change vs veh, ZFP14 / RFU, ACTR2 / Fold change vs veh, ACTR2 / RFU, PPP3R1 / Fold change vs veh, PPP3R1 / RFU, PIK3R1 / Fold change vs veh, PIK3R1 / RFU, HNRNPA1 / Fold change vs veh, HNRNPA1 / RFU, RNF170 / Fold change vs veh, RNF170 / RFU, ZNF28 / Fold change vs veh, ZNF28 / RFU, RNGTT / Fold change vs veh, RNGTT / RFU, OGT / Fold change vs veh, OGT / RFU, BRD1 / Fold change vs veh, BRD1 / RFU, MARS / Fold change vs veh, MARS / RFU, ZNF655 / Fold change vs veh, ZNF655 / RFU, FAHD1 / Fold change vs veh, FAHD1 / RFU, BDP1 / Fold change vs veh, BDP1 / RFU, LRRCC1 / Fold change vs veh, LRRCC1 / RFU, ARID1A / Fold change vs veh, ARID1A / RFU, ZNF146 / Fold change vs veh, ZNF146 / RFU, ZNF330 / Fold change vs veh, ZNF330 / RFU, GPN3 / Fold change vs veh, GPN3 / RFU, C9orf123 / Fold change vs veh, C9orf123 / RFU, N4BP2L2 / Fold change vs veh, N4BP2L2 / RFU, ARFIP1 / Fold change vs veh, ARFIP1 / RFU, FAM179B / Fold change vs veh, FAM179B / RFU, BCL10 / Fold change vs veh, BCL10 / RFU, UHRF1BP1L / Fold change vs veh, UHRF1BP1L / RFU, BET1 / Fold change vs veh, BET1 / RFU, CNOT2 / Fold change vs veh, CNOT2 / RFU, ZNF268 / Fold change vs veh, ZNF268 / Fold change vs veh, ZNF507 / RFU, DGCR2 / Fold change vs veh, DGCR2 / RFU, WDSUB1 / Fold change vs veh, WDSUB1 / Fold change vs veh, HSP90B1 /// MIR3652 / RFU, ADSS / Fold change vs veh, ADSS / RFU, GK / Fold change vs veh, GK / RFU, ZNF148 / Fold change vs veh, ZNF148 / RFU, TAF9 / Fold change vs veh, TAF9 / RFU, SLC1A5 / Fold change vs veh, SLC1A5 / RFU, SLMO2 / Fold change vs veh, SLMO2 / RFU, ABCC4 / Fold change vs veh, ABCC4 / RFU, LOC101060439 /// RAP1B / Fold change vs veh, LOC101060439 /// RAP1B / RFU, RFX7 / Fold change vs veh, RFX7 / RFU, GTPBP10 / Fold change vs veh, GTPBP10 / RFU, CNEP1R1 / Fold change vs veh, CNEP1R1 / RFU, BIVM-ERCC5 /// ERCC5 / Fold change vs veh, BIVM-ERCC5 /// ERCC5 / RFU, ILF3 / Fold change vs veh, ILF3 / RFU 11762660_at / Fold change /veh 11762660_at / RFU VCAN (11757783_s_at) / Fold change /veh VCAN (11757783_s_at) / RFU DDX43 (11728927_at) / Fold change /veh DDX43 (11728927_at) / RFU KRT8 (11758188_x_at) / Fold change /veh KRT8 (11758188_x_at) / RFU NKD1 (11759106_at) / Fold change /veh NKD1 (11759106_at) / RFU SRD5A1 (11742802_a_at) / Fold change /veh SRD5A1 (11742802_a_at) / RFU TPSAB1 /// TPSB2 (11721975_s_at) / Fold change /veh TPSAB1 /// TPSB2 (11721975_s_at) / RFU GSTM3 (11746129_a_at) / Fold change /veh GSTM3 (11746129_a_at) / RFU IL23R (11737362_x_at) / Fold change /veh IL23R (11737362_x_at) / RFU TMEM51 (11727254_a_at) / Fold change /veh TMEM51 (11727254_a_at) / RFU PIWIL2 (11732686_x_at) / Fold change /veh PIWIL2 (11732686_x_at) / RFU ORM1 (11744905_x_at) / Fold change /veh ORM1 (11744905_x_at) / RFU CCDC152 (11743942_at) / Fold change /veh CCDC152 (11743942_at) / RFU ECM1 (11717891_a_at) / Fold change /veh ECM1 (11717891_a_at) / RFU IL23R (11748794_a_at) / Fold change /veh IL23R (11748794_a_at) / RFU TNFAIP8L3 (11732012_x_at) / Fold change /veh TNFAIP8L3 (11732012_x_at) / RFU MBOAT4 (11741988_at) / Fold change /veh MBOAT4 (11741988_at) / RFU 11764193_at / Fold change /veh 11764193_at / RFU TMEM53 (11763286_at) / Fold change /veh TMEM53 (11763286_at) / RFU MAGEB2 (11727129_at) / Fold change /veh MAGEB2 (11727129_at) / RFU TMEM200A (11744735_a_at) / Fold change /veh TMEM200A (11744735_a_at) / RFU CCDC152 (11751479_a_at) / Fold change /veh CCDC152 (11751479_a_at) / RFU FAM211A (11726209_a_at) / Fold change /veh FAM211A (11726209_a_at) / RFU RGS16 (11746705_a_at) / Fold change /veh RGS16 (11746705_a_at) / RFU VCAN (11755009_s_at) / Fold change /veh VCAN (11755009_s_at) / RFU RHOB (11743442_s_at) / Fold change /veh RHOB (11743442_s_at) / RFU RGS16 (11720943_a_at) / Fold change /veh RGS16 (11720943_a_at) / RFU RGS16 (11720944_at) / Fold change /veh RGS16 (11720944_at) / RFU, VPS4B / Fold change vs veh, VPS4B / RFU, CREB1 / Fold change vs veh, CREB1 / RFU, DNAJC13 / Fold change vs veh, DNAJC13 / RFU, GNAQ / Fold change vs veh, GNAQ / RFU, CDK5R1 / Fold change vs veh, CDK5R1 / RFU, ZRANB3 / Fold change vs veh, ZRANB3 / RFU, CUL4A / Fold change vs veh, CUL4A / RFU, CCNY / Fold change vs veh, CCNY / RFU, UFL1 / Fold change vs veh, UFL1 / RFU, COG3 / Fold change vs veh, COG3 / RFU, DIAPH2 / Fold change vs veh, DIAPH2 / RFU, SKA2 / Fold change vs veh, SKA2 / RFU, AFF3 / Fold change vs veh, AFF3 / RFU, LMF1 / Fold change vs veh, LMF1 / RFU, IPO11 / Fold change vs veh, IPO11 / RFU, DFFB / Fold change vs veh, DFFB / RFU, FOXP1 / Fold change vs veh, FOXP1 / RFU, CARD8 / Fold change vs veh, CARD8 / RFU, STRN3 / Fold change vs veh, STRN3 / RFU, ADK / Fold change vs veh, ADK / RFU, RASSF2 / Fold change vs veh, RASSF2 / RFU, WIPF1 / Fold change vs veh, WIPF1 / RFU, LARP1B / Fold change vs veh, LARP1B / RFU, RASA1 / Fold change vs veh, RASA1 / RFU, RB1 / Fold change vs veh, RB1 / RFU, PPFIA1 / Fold change vs veh, PPFIA1 / RFU, MAT2A / Fold change vs veh, MAT2A / RFU, CCT5 / Fold change vs veh, CCT5 / RFU, WDR92 / Fold change vs veh, WDR92 / RFU, CUX1 / Fold change vs veh, CUX1 / RFU, TTC7A / Fold change vs veh, TTC7A / RFU, TMEM135 / Fold change vs veh, TMEM135 / RFU, DEPTOR / Fold change vs veh, DEPTOR / RFU, CPM / Fold change vs veh, CPM / RFU, DNAJB6 / Fold change vs veh, DNAJB6 / RFU, CACNA2D3 / Fold change vs veh, CACNA2D3 / RFU, DTX4 / Fold change vs veh, DTX4 / RFU, TFCP2 / Fold change vs veh, TFCP2 / RFU, GMCL1 /// GMCL1P1 / Fold change vs veh, GMCL1 /// GMCL1P1 / RFU, AEBP2 / Fold change vs veh, AEBP2 / RFU, SNHG1 /// SNORD22 /// SNORD25 /// SNORD26 /// SNORD27 /// SNORD28 /// SNORD29 /// SNORD31 / Fold change vs veh, SNHG1 /// SNORD22 /// SNORD25 /// SNORD26 /// SNORD27 /// SNORD28 /// SNORD29 /// SNORD31 / Fold change (Aza/veh), C12orf56 (ProbeSet 11735607_a_at) / Fold change (ACY-1035/veh), C12orf56 (ProbeSet 11735607_a_at) / Fold change (Aza/veh), FGFR1OP (ProbeSet 11751329_s_at) / Fold change (ACY-1035/veh), FGFR1OP (ProbeSet 11751329_s_at) / Fold change (Aza/veh), VPS36 (ProbeSet 11739960_a_at) / Fold change (ACY-1035/veh), VPS36 (ProbeSet 11739960_a_at) / RFU SYPL1 (11715823_x_at) / Fold change /veh SYPL1 (11715823_x_at) / RFU IGFBP7 (11715501_s_at) / Fold change /veh IGFBP7 (11715501_s_at) / RFU REEP3 (11722064_at) / Fold change /veh REEP3 (11722064_at) / RFU IGLL1 (11728026_x_at) / Fold change /veh IGLL1 (11728026_x_at): dose or concentration left out as unconfirmed
Conditions: MV-4-11 cells, 48 hours

SMILES: Nc1ncn([C@@H]2O[C@H](CO)[C@@H](O)[C@H]2O)c(=O)n1 [azacitidine]
- Fold change /veh LRRC4B (11730491_at): 1.07
